The values that follow come from US11045562B2, “Radiolabelled mGluR2/3 PET ligands” (Janssen Pharmaceutica NV, priority 2015, dated 2021).

SMILES strings stand for the structures.

One assay deals with T1, human mGlu3 (Homo sapiens, UniProt Q14832).
T1 construct: expressed in transfected cells; host or cells: HEK293
Description: [3H]-compound A displacement binding, human mGlu3 HEK293 membranes. How it is done: (§1) For [^3H]-compound A (a NAM compound, selective for mGlu2/3 (˜20 fold selective for 2 over 3) vs other mGluRs) binding, membranes from human mGlu2 and mGlu3 HEK293 cells, and also rat cortical membranes, were used. After thawing, membranes were homogenized using an Ultra Turrax homogenizer and suspended in ice-cold binding buffer containing 50 mM Tris-HCl (pH 7.4), 10 mM MgCl2, 2 mM CaCl2. Displacement studies were done using 6 nM of radioligand, except for human mGlu3 membranes where 25 nM was used. Assay mixtures were incubated for 60 min at RT in a volume of 0.5 ml containing […] or 75 μg membrane protein of human mGlu2, human mGlu3 or rat cortex, respectively. Non-specific binding was estimated in the presence of […] compound B (a NAM with IC50˜10 nM against hmGlu2 and IC50˜200 nM against hmGlu3). Filtration was performed using Whatman GF/C filter sheets pre-soaked in 0.1% PEI and a Brandell harvester 96.
(§2) Filters from filters sheets were punched into vials. After the addition of scintillation liquid, radioactivity on the filters was counted in a Liquid Scintillation Analyzer from Perkin Elmer.
(§3) Radioligand competition binding data were calculated as percentage of total binding measured in the absence of test compound. […] Sigmoid inhibition curves were analyzed using non-linear regression analysis.

In another assay the test system is mGlu2-3 rat cortex. The assay is described as follows: [3H]-compound A displacement binding, rat cortical membranes. How it is done: as §1, §2, §3
For a further assay, the target named is T2, human mGlu2 (Homo sapiens, UniProt Q14416).
T2 construct: expressed in transfected cells; host or cells: HEK293
The assay is described as follows: [3H]-compound A displacement binding, human mGlu2 HEK293 membranes. How it is done: as §1, §2, §3

T2 sequence (Q14416 19-872): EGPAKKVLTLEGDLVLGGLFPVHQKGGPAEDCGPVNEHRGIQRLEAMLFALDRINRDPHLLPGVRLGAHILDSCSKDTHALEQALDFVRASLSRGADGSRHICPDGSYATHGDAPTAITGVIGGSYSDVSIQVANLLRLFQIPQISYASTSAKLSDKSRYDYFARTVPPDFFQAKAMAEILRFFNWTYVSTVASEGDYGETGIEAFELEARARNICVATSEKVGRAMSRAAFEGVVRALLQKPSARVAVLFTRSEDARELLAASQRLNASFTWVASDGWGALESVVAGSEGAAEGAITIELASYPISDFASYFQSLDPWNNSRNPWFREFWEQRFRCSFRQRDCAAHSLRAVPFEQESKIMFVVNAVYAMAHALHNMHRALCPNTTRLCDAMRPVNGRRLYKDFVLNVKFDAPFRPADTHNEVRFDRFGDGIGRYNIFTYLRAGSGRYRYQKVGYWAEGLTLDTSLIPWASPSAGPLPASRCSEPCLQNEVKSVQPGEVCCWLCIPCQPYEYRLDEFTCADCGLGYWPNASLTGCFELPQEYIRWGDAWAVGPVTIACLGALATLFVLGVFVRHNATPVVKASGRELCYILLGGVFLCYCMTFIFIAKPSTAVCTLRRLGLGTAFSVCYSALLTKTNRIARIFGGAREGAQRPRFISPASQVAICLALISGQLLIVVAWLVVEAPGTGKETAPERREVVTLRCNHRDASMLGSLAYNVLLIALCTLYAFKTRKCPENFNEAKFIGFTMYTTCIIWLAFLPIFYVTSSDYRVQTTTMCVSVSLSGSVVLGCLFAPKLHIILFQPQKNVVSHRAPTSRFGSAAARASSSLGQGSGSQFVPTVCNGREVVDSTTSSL
T1 sequence (Q14832 23-879): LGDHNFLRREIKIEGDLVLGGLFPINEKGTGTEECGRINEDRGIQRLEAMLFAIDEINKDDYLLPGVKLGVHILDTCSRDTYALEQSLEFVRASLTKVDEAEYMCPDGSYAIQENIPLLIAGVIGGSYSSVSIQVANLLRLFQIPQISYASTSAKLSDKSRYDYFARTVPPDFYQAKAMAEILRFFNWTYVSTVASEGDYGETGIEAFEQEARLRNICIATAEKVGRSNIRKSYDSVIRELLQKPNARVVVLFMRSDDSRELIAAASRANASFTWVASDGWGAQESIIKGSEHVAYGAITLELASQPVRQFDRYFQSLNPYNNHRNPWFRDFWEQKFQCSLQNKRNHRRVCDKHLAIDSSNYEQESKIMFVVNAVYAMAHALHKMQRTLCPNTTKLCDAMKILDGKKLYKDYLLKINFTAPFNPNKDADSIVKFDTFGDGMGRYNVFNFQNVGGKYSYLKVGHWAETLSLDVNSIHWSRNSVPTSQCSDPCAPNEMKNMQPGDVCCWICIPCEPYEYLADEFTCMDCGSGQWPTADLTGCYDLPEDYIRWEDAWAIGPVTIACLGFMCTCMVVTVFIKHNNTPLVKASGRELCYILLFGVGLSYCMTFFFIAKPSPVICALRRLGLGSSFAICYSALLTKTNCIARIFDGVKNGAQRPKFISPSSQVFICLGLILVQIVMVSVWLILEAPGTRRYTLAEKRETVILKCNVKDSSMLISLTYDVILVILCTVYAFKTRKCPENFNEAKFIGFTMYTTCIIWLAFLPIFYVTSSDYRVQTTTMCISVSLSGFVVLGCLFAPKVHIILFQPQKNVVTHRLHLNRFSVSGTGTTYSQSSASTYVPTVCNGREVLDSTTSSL

As to `C[C@H]1CN(c2ccc(C(F)(F)F)c(C[18F])c2)C(=O)c2c(NC(=O)c3cccnc3N)cnn21` [compound 1], the entries for the “Eff Curve” value at human mGlu3, in the assay on mGlu2-3 rat cortex and at human mGlu2 were 96, 103 and 85, respectively. Moreover, the values for the IC50 on human mGlu3 (25 nM [3H]-compound A) and on human mGlu2 (6 nM [3H]-compound A) were 5.01 nM and 2.88 nM, respectively. This compound registered a pIC50 at mGlu2-3 rat cortex (6 nM [3H]-compound A) of 8.7.
